In article PMC7265341, “Quantifying CDK inhibitor selectivity in live cells” (Nature Communications, 2020):
Like-named read-outs stand apart in the source and are kept apart here.

Key:
CDK15/Cyclin Y = CDK15/Cyclin Y (Homo sapiens, UniProt Q96Q40); test: NanoBRET live-cell target engagement, NanoLuc-CDK15/Cyclin Y in HEK-293; format: binding; conditions: 10µM, read-out: CDK15/Y Inhibition at 10µM (%)
CDK17/Cyclin Y = CDK17/Cyclin Y (Homo sapiens, UniProt Q00537); test: NanoBRET live-cell target engagement, CDK17-NanoLuc/Cyclin Y in HEK-293; format: binding; conditions: 10µM, read-out: CDK17/Y Inhibition at 10µM (%)
CDK5/CDK5R1 = CDK5/CDK5R1 (Homo sapiens, UniProt Q00535); test: NanoBRET live-cell target engagement, CDK5-NanoLuc/CDK5R1 in HEK-293; format: binding; conditions: for inhibition at 10 µM: read-out: CDK5/CDK5R1 Inhibition at 10µM (%); for IC50: read-out: CDK5/CDK5R1 IC50
CDK18/Cyclin Y = CDK18/Cyclin Y (Homo sapiens, UniProt Q07002); test: NanoBRET live-cell target engagement, CDK18-NanoLuc/Cyclin Y in HEK-293; format: binding; conditions: 10µM, read-out: CDK18/Y Inhibition at 10µM (%)
CDK11A/Cyclin L2 = target: T1, CDK11A/Cyclin L2 (Homo sapiens, UniProt Q9UQ88); test: NanoBRET live-cell target engagement, CDK11A-NanoLuc/Cyclin L2 in HEK-293; format: binding; conditions: 10µM, read-out: CDK11a/L2 Inhibition at 10µM (%)
T1 sequence (Q9UQ88 1-783): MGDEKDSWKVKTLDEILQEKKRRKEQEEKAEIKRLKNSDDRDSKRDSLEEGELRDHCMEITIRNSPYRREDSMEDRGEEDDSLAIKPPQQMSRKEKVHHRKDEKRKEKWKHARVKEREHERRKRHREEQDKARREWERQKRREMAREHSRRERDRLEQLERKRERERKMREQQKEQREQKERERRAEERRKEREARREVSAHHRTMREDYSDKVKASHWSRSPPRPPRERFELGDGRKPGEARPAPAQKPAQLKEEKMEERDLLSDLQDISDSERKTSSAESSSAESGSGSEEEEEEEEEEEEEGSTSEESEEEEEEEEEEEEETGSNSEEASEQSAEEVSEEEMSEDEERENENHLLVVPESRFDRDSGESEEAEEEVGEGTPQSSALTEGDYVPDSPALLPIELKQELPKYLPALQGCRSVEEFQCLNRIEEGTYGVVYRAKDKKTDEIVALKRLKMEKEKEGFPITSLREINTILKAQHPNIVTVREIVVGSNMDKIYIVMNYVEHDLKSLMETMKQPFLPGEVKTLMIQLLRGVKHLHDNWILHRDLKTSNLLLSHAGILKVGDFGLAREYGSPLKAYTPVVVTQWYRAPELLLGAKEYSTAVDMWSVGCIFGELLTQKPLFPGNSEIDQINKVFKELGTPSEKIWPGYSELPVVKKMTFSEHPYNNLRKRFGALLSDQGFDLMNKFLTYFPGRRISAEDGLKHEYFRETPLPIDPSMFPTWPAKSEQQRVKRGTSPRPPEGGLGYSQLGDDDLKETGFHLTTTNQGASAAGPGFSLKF

CDK6/Cyclin D1 = CDK6/Cyclin D1 (Homo sapiens, UniProt Q00534); test: NanoBRET live-cell target engagement, NanoLuc-CDK6/Cyclin D1 in HEK-293; format: binding; conditions: for inhibition at 10 µM: read-out: CDK6/D1 Inhibition at 10µM (%); for IC50: read-out: CDK6/D1 IC50
CDK2/Cyclin E1 = CDK2/Cyclin E1 (Homo sapiens, UniProt P24941); test: NanoBRET live-cell target engagement, CDK2-NanoLuc/Cyclin E1 in HEK-293; format: binding; conditions: 10µM, read-out: CDK2/E1 Inhibition at 10µM (%)
CDK9/Cyclin K = CDK9/Cyclin K (Homo sapiens, UniProt P50750); test: NanoBRET live-cell target engagement, NanoLuc-CDK9/Cyclin K in HEK-293; format: binding; conditions: 10µM, read-out: CDK9/K Inhibition at 10µM (%)
CDK16/Cyclin Y = CDK16/Cyclin Y (Homo sapiens, UniProt Q00536); test: NanoBRET live-cell target engagement, CDK16-NanoLuc/Cyclin Y in HEK-293; format: binding; conditions: 10µM, read-out: CDK16/Y Inhibition at 10µM (%)
CDK14/Cyclin Y = CDK14/Cyclin Y (Homo sapiens, UniProt O94921); test: NanoBRET live-cell target engagement, CDK14-NanoLuc/Cyclin Y in HEK-293; format: binding; conditions: 10µM, read-out: CDK14/Y Inhibition at 10µM (%)
CDK8/Cyclin C = CDK8/Cyclin C (Homo sapiens, UniProt P49336); test: NanoBRET live-cell target engagement, NanoLuc-CDK8/Cyclin C in HEK-293; format: binding; conditions: 10µM, read-out: CDK8/C Inhibition at 10µM (%)
CDK10/Cyclin L2 = CDK10/Cyclin L2 (Homo sapiens, UniProt Q15131); test: NanoBRET live-cell target engagement, CDK10-NanoLuc/Cyclin L2 in HEK-293; conditions: read-out: CDK10/L2 Inhibition at 10µM (%), 10µM
CDK1/Cyclin E1 = CDK1/Cyclin E1 (Homo sapiens, UniProt P06493); test: NanoBRET live-cell target engagement, CDK1-NanoLuc/Cyclin E1 in HEK-293; format: binding; conditions: for inhibition at 10 µM: read-out: CDK1/E1 Inhibition at 10µM (%); for IC50: read-out: CDK1/E1 IC50
CDK11B/Cyclin L2 = CDK11B/Cyclin L2 (Homo sapiens, UniProt P21127); test: NanoBRET live-cell target engagement, CDK11B-NanoLuc/Cyclin L2 in HEK-293; format: binding; conditions: 10µM, read-out: CDK11b/L2 Inhibition at 10µM (%)
CDK19/Cyclin C = CDK19/Cyclin C (Homo sapiens, UniProt Q9BWU1); test: NanoBRET live-cell target engagement, NanoLuc-CDK19/Cyclin C in HEK-293; conditions: read-out: CDK19/C Inhibition at 10µM (%), 10µM
CDK20/Cyclin H = CDK20/Cyclin H (Homo sapiens, UniProt Q8IZL9); test: NanoBRET live-cell target engagement, NanoLuc-CDK20/Cyclin H in HEK-293; format: binding; conditions: 10µM, read-out: CDK20/H Inhibition at 10µM (%)
CDK4/Cyclin D1 = CDK4/Cyclin D1 (Homo sapiens, UniProt P11802); test: NanoBRET live-cell target engagement, NanoLuc-CDK4/Cyclin D1 in HEK-293; format: binding; conditions: for inhibition at 10 µM: read-out: CDK4/D1 Inhibition at 10µM (%); for IC50: read-out: CDK4/D1 IC50
CDK7 = CDK7 (Homo sapiens, UniProt P50613); test: NanoBRET live-cell target engagement, NanoLuc-CDK7 in HEK-293; format: binding; conditions: for inhibition at 10 µM: read-out: CDK7 Inhibition at 10µM (%)
CDK13/Cyclin K = CDK13/Cyclin K (Homo sapiens, UniProt Q14004); test: NanoBRET live-cell target engagement, CDK13-NanoLuc/Cyclin K in HEK-293; format: binding; conditions: 10µM, read-out: CDK13/K Inhibition at 10µM (%)

CDK10/Cyclin L2, sequence (Q15131 whole entry): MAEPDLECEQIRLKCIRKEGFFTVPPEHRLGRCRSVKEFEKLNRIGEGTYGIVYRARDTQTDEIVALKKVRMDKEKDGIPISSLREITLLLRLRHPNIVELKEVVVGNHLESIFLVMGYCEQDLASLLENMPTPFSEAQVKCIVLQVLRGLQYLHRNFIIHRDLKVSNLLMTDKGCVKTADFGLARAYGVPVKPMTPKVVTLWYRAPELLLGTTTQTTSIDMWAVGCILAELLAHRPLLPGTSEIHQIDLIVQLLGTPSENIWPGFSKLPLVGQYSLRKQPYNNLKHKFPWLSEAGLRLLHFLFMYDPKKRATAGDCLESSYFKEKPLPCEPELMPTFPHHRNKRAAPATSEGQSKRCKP
CDK9/Cyclin K, sequence (P50750 whole entry): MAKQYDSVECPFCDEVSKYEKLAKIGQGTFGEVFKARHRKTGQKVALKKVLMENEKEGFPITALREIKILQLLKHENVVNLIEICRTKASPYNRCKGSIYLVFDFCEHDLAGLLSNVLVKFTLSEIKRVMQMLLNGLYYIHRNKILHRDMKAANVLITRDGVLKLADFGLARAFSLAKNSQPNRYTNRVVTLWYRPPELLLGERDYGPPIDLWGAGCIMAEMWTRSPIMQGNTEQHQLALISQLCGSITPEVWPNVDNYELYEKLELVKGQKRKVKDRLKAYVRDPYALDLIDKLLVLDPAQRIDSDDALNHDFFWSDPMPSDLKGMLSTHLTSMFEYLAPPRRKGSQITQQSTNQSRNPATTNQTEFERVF
CDK9/Cyclin K, sequence (O75909 whole entry partner): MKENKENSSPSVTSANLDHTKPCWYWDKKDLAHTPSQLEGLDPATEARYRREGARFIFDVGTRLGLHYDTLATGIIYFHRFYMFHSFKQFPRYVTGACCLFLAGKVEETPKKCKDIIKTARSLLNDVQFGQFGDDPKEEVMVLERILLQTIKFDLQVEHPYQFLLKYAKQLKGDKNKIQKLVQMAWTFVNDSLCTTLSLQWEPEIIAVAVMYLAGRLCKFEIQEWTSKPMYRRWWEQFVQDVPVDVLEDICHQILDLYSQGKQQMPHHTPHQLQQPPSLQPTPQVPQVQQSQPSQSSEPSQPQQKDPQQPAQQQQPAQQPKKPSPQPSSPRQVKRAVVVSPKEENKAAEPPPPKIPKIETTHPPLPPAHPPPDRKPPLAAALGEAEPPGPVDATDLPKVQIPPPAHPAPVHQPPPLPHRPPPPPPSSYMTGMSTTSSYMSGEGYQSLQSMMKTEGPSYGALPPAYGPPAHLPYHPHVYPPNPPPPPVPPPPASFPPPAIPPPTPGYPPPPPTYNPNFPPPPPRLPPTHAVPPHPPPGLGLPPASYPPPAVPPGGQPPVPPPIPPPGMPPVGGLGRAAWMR
CDK5/CDK5R1, sequence (Q00535 whole entry): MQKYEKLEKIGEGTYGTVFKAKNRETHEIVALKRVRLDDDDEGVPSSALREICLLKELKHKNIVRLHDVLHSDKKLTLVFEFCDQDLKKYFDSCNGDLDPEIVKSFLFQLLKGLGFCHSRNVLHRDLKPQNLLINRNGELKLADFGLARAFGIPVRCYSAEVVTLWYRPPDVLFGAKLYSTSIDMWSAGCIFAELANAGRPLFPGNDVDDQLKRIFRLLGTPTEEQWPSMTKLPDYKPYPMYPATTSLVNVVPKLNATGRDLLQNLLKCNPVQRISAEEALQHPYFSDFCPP
CDK5/CDK5R1, sequence (Q15078 whole entry partner): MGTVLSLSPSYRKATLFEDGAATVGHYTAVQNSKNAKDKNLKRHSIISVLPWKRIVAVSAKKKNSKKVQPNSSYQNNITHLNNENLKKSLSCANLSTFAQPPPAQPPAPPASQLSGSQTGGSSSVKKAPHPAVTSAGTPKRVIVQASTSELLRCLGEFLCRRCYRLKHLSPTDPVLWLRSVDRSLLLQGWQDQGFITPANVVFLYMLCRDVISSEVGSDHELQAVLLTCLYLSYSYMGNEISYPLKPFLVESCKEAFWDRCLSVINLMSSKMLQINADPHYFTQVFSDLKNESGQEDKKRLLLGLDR
CDK1/Cyclin E1, sequence (P06493 whole entry): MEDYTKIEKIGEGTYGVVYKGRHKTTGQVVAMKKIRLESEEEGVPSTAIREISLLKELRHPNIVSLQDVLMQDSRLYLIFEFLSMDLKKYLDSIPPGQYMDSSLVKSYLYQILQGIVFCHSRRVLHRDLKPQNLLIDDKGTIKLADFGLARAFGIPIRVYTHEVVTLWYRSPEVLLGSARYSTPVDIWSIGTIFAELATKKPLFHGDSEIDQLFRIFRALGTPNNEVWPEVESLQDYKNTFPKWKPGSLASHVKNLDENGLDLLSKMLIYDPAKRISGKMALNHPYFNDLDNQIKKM
CDK1/Cyclin E1, sequence (P24864 whole entry partner): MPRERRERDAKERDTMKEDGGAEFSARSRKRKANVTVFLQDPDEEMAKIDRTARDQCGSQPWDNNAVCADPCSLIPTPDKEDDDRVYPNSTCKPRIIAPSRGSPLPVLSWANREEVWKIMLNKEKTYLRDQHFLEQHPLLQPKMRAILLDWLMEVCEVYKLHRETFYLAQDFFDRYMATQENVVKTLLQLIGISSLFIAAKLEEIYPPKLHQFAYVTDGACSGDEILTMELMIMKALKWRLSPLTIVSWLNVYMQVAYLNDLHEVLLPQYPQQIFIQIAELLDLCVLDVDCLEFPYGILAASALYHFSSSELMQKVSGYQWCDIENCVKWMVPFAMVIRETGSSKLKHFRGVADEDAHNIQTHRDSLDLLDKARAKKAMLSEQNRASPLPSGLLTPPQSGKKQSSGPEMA
CDK14/Cyclin Y, sequence (O94921 whole entry): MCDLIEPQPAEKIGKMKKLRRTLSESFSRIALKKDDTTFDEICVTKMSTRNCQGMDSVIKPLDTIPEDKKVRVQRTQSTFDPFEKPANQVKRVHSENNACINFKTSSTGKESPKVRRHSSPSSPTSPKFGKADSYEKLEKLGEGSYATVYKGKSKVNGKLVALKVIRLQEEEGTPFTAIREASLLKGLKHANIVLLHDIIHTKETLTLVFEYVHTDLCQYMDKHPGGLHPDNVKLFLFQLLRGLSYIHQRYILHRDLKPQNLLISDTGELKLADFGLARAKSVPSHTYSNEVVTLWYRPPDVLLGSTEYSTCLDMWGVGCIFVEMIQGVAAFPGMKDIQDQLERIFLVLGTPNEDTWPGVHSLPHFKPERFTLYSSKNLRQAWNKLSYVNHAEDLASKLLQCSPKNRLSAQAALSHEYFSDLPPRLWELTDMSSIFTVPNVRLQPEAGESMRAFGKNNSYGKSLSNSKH
CDK14/Cyclin Y, sequence (Q8ND76 whole entry partner): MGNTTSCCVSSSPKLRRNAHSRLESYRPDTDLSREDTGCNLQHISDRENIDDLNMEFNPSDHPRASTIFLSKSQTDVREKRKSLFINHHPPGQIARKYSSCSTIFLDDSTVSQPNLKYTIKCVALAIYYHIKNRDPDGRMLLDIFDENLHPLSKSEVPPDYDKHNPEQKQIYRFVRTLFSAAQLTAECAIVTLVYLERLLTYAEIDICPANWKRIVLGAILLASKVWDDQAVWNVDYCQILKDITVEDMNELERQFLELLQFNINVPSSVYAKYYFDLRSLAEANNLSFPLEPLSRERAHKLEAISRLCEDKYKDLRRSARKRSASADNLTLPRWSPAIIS
CDK7, sequence (P50613 whole entry): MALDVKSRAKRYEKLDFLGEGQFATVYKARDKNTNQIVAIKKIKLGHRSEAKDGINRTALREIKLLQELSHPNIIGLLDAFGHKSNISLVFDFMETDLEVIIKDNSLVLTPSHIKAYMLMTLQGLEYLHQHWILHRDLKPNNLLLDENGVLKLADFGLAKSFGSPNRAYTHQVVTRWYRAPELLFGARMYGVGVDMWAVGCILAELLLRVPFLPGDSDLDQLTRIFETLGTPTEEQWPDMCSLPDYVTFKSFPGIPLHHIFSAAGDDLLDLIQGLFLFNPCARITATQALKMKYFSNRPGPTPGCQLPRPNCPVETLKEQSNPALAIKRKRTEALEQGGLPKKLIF
CDK8/Cyclin C, sequence (P49336 whole entry): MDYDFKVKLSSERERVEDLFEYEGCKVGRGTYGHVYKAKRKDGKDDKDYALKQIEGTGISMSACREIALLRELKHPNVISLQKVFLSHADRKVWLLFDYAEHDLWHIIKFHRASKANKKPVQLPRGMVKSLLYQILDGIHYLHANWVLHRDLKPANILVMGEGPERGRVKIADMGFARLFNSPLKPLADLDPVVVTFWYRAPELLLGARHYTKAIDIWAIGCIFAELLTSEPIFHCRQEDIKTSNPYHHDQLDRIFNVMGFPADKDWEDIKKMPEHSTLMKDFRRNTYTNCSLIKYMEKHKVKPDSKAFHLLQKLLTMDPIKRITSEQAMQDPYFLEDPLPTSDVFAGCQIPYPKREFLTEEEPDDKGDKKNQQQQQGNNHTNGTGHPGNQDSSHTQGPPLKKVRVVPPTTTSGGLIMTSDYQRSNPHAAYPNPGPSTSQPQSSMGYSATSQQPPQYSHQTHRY
CDK8/Cyclin C, sequence (P24863 whole entry partner): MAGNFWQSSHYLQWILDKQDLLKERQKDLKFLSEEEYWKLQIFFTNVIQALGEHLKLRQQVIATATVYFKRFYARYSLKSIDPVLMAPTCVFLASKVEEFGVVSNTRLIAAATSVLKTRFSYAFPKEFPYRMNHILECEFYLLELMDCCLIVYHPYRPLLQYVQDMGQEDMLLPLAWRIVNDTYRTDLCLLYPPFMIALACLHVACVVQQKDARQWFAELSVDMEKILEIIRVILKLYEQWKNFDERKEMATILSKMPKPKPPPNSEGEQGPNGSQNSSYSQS

- inhibition at 10 µM (CDK15/Cyclin Y; average of experiments): 72.5%
- inhibition at 10 µM (CDK15/Cyclin Y; independent experiment 1): 72.6%
- inhibition at 10 µM (CDK15/Cyclin Y; independent experiment 2): 72.5%
- inhibition at 10 µM (CDK17/Cyclin Y; average of experiments): 86.9%
- inhibition at 10 µM (CDK17/Cyclin Y; independent experiment 1): 86.4%
- inhibition at 10 µM (CDK17/Cyclin Y; independent experiment 2): 87.4%
- inhibition at 10 µM (CDK5/CDK5R1; average of experiments): 92%
- inhibition at 10 µM (CDK5/CDK5R1; independent experiment 1): 89.9%
- inhibition at 10 µM (CDK5/CDK5R1; independent experiment 2): 94.2%
- IC50 (CDK5/CDK5R1; average (± SEM where n=3)): 360 nM
- IC50 (CDK5/CDK5R1; independent experiment 1): 422 nM
- IC50 (CDK5/CDK5R1; independent experiment 2): 300 nM
- inhibition at 10 µM (CDK18/Cyclin Y; average of experiments): 91.7%
- inhibition at 10 µM (CDK18/Cyclin Y; independent experiment 1): 86.8%
- inhibition at 10 µM (CDK18/Cyclin Y; independent experiment 2): 96.6%
- inhibition at 10 µM (CDK11A/Cyclin L2; average of experiments): 50.1%
- inhibition at 10 µM (CDK11A/Cyclin L2; independent experiment 1): 50.7%
- inhibition at 10 µM (CDK11A/Cyclin L2; independent experiment 2): 49.4%
- inhibition at 10 µM (CDK6/Cyclin D1; average of experiments): 88.3%
- inhibition at 10 µM (CDK6/Cyclin D1; independent experiment 1): 84.9%
- inhibition at 10 µM (CDK6/Cyclin D1; independent experiment 2): 91.6%
- IC50 (CDK6/Cyclin D1; average (± SEM where n=3)): 430 nM
- IC50 (CDK6/Cyclin D1; independent experiment 1): 374 nM
- IC50 (CDK6/Cyclin D1; independent experiment 2): 480 nM
- inhibition at 10 µM (CDK2/Cyclin E1; average of experiments): 96%
- inhibition at 10 µM (CDK2/Cyclin E1; independent experiment 1): 95.7%
- inhibition at 10 µM (CDK2/Cyclin E1; independent experiment 2): 96.3%
- inhibition at 10 µM (CDK9/Cyclin K; average of experiments): 86%
- inhibition at 10 µM (CDK9/Cyclin K; independent experiment 1): 87.8%
- inhibition at 10 µM (CDK9/Cyclin K; independent experiment 2): 84.1%
- inhibition at 10 µM (CDK16/Cyclin Y; independent experiment 1): 84.5%
- inhibition at 10 µM (CDK16/Cyclin Y; independent experiment 2): 87%
- inhibition at 10 µM (CDK14/Cyclin Y; average of experiments): 81.4%
- inhibition at 10 µM (CDK14/Cyclin Y; independent experiment 1): 81%
- inhibition at 10 µM (CDK14/Cyclin Y; independent experiment 2): 81.8%
- inhibition at 10 µM (CDK8/Cyclin C; average of experiments): 57.2%
- inhibition at 10 µM (CDK8/Cyclin C; independent experiment 1): 65.2%
- inhibition at 10 µM (CDK8/Cyclin C; independent experiment 2): 49.1%
- inhibition at 10 µM (CDK10/Cyclin L2; average of experiments): 30%
- inhibition at 10 µM (CDK10/Cyclin L2; independent experiment 1): 32.9%
- inhibition at 10 µM (CDK10/Cyclin L2; independent experiment 2): 27.2%
- inhibition at 10 µM (CDK1/Cyclin E1; average of experiments): 71.4%
- inhibition at 10 µM (CDK1/Cyclin E1; independent experiment 1): 72%
- inhibition at 10 µM (CDK1/Cyclin E1; independent experiment 2): 70.8%
- IC50 (CDK1/Cyclin E1; average (± SEM where n=3)): 820 nM
- IC50 (CDK1/Cyclin E1; independent experiment 1): 800 nM
- IC50 (CDK1/Cyclin E1; independent experiment 2): 850 nM
- inhibition at 10 µM (CDK11B/Cyclin L2; average of experiments): 56.3%
- inhibition at 10 µM (CDK11B/Cyclin L2; independent experiment 1): 57.8%
- inhibition at 10 µM (CDK11B/Cyclin L2; independent experiment 2): 54.7%
- inhibition at 10 µM (CDK19/Cyclin C; average of experiments): 52.6%
- inhibition at 10 µM (CDK19/Cyclin C; independent experiment 1): 63.4%
- inhibition at 10 µM (CDK19/Cyclin C; independent experiment 2): 41.9%
- inhibition at 10 µM (CDK20/Cyclin H; independent experiment 1): 5.8%
- inhibition at 10 µM (CDK20/Cyclin H; independent experiment 2): 16.7%
- inhibition at 10 µM (CDK4/Cyclin D1; average of experiments): 83.1%
- inhibition at 10 µM (CDK4/Cyclin D1; independent experiment 1): 82.5%
- inhibition at 10 µM (CDK4/Cyclin D1; independent experiment 2): 83.8%
- IC50 (CDK4/Cyclin D1; average (± SEM where n=3)): 320 nM
- IC50 (CDK4/Cyclin D1; independent experiment 1): 122 nM
- IC50 (CDK4/Cyclin D1; independent experiment 2): 510 nM
- inhibition at 10 µM (CDK7; average of experiments): 94.1%
- inhibition at 10 µM (CDK7; independent experiment 1): 95.3%
- inhibition at 10 µM (CDK7; independent experiment 2): 92.8%
- IC50 (CDK7; average (± SEM where n=3), read-out: CDK7 IC50): 240 nM
- IC50 (CDK7; independent experiment 1, read-out: CDK7 IC50): 240 nM
- IC50 (CDK7; independent experiment 2, read-out: CDK7 IC50): 230 nM
- IC50 (CDK7; live HEK-293, 2 h, mean ± S.E.M. (n=3) or mean (n=2), read-out: IC50 for CDK/cyclin complexes, CDK7): 240 nM
- inhibition at 10 µM (CDK13/Cyclin K; average of experiments): 17.1%
- inhibition at 10 µM (CDK13/Cyclin K; independent experiment 1): 23.7%
- inhibition at 10 µM (CDK13/Cyclin K; independent experiment 2): 10.4%
Structure (SMILES): CC(C)CC(=O)Nc1[nH]nc2c1CN(C(=O)C1CCN(C)CC1)C2(C)C [PHA-793887]
